Article PMC13270500, “Legacy 4(1H)‑Quinolone Scaffolds Activity against Acute and Chronic Toxoplasma gondii Infection” (ACS Infectious Diseases, 2026)

Tests used:
[1] = system: ME49 R4 ATQ^R tachyzoites; assay: In vitro tachyzoite growth dose response, ATQ-resistant strain R4 (crystal violet); format: cell-based; details: Toxoplasma gondii, read-out: EC50 against R4 ATQ^R strain
[2] = system: T. gondii RH (type I) tachyzoites; assay: In vitro tachyzoite growth dose response, RH-RFP (red fluorescence); format: cell-based; details: Toxoplasma gondii, RH-RFP type I wild-type, in vitro proliferation; read-out: EC50 against RH tachyzoites
Protocol: Experiments with T. gondii tachyzoites were carried out with parasites expressing a td-Tomato red fluorescent protein (RFP). , Parasites were purified by passing them through a 25-gauge needle, followed by filtration through a 5 μm filter. Human fibroblasts were cultured in 96-well black plates for 48 (hTERT) or 120 (HFF) hours before the addition of 4,000 fluorescent tachyzoites/well. […] Two technical replicates per concentration were used, and the experiment was repeated in three independent biological replicates. Fluorescence values were measured for up to 7 days, and both excitation (544 nm) and emission (590 nm) were read from the bottom of the plates in a BioTek Synergy H1 Hybrid plate reader. […] The EC50s were calculated using GraphPad Prism software version 10.

## O=C1C(O)=C([C@H]2CC[C@H](c3ccc(Cl)cc3)CC2)C(=O)c2ccccc21 [ATQ, atovaquone]
[1]
  EC50: 1870 nM
[2]
  EC50: 14.1 nM
